Activity calls are given as the source filed them. The calls are words filed in the database; no cut-off is given here.
Assays:
AGS [1] = assay: Induction of apoptosis in human AGS cells assessed as increase in cleaved caspase-9 level at 0 to 10 uM by Western blot analysis; assay type: functional, cell-based; settings: dose 0-10 µM
AGS [2] = assay: Induction of apoptosis in human AGS cells assessed as late apoptotic cells measured after 24 hrs by AnnexinV-FITC/PI staining based flow cytometry method (reference value: 2.4%); assay type: functional
HGC-27 [3] = assay: Induction of apoptosis in human HGC-27 cells transfected with pcDNA3.1-Drp1 plasmid to overexpress DRP1 assessed as viable cells measured after 24 hrs by AnnexinV-FITC/PI staining based flow cytometry method (reference value: 95.8%); assay type: functional
AGS [4] = assay: Antitumor activity against human AGS cells xenografted in nude mouse assessed as downregulation of p-DRP1 levels at 10 to 20 mg/kg, ip administered every other day and monitored every 3 days; assay type: functional, organism-based; settings: dose 10-20 mg/kg, time 3.0 day
HGC-27 [5] = assay: Induction of apoptosis in human HGC-27 cells transfected with pcDNA3.1-Drp1 plasmid to overexpress DRP1 assessed as late apoptotic cells measured after 24 hrs by AnnexinV-FITC/PI staining based flow cytometry method (reference value: 2.0%); assay type: functional
Mus musculus = assay: In vivo inhibition of ERK signalling pathway in nude mouse xenografted with human AGS cells assessed as downregulation of p-ERK levels at 10 to 20 mg/kg, ip administered every other day and monitored every 3 days by western blot analysis; assay type: functional, organism-based; settings: dose 10-20 mg/kg, time 3.0 day
HGC-27 [6] = assay: Induction of cell cycle arrest in human HGC-27 cells assessed as accumulation of cells at G0/G1 phase at 8 uM incubated for 24 hrs propidium iodide-A staining-based flow cytometric analysis (reference value: 45.21%); assay type: functional
AGS [7] = assay: Induction of apoptosis in human AGS cells assessed as viable cells at 10 uM measured after 24 hrs by AnnexinV-FITC/PI staining based flowcytometry method (reference value: 95.2%); assay type: functional; settings: read-out: Activity
AGS [8] = assay: Inhibition of mitochondrial fission in human AGS cells assessed as downregulation of p-DRP1 at 0 to 10 uM measured after 24 hrs by Western blot analysis; assay type: functional, cell-based; settings: dose 0-10 µM
HGC-27 [9] = assay: Induction of apoptosis in human HGC-27 cells assessed as early apoptotic cells at 10 uM measured after 24 hrs by AnnexinV-FITC/PI staining based flowcytometry method (reference value: 3.3%); assay type: functional
[10] = Toxicity in nude mouse xenografted with human AGS cells assessed as effect on aspartate aminotransferase level at 10 to 20 mg/kg, ip administered every other day and monitored every 3 days; assay type: organism-based; settings: in vivo, 72 h, dose 10-20 mg/kg, time 3 day
HGC-27 [11] = assay: Induction of apoptosis in human HGC-27 cells assessed as early apoptotic cells measured after 24 hrs by AnnexinV-FITC/PI staining based flow cytometry method (reference value: 1.6%); assay type: functional
AGS [12] = assay: Induction of apoptosis in human AGS cells assessed as viable cells at 6 uM measured after 24 hrs by AnnexinV-FITC/PI staining based flowcytometry method (reference value: 95.2%); assay type: functional; settings: read-out: Activity
AGS [13] = assay: Inhibition of mitochondrial fission in human AGS cells assessed as reduction in punctiform mitochondria at 0 to 6 uM measured after 24 hrs by mitotracker based confocal microscopy; assay type: functional; settings: dose 0-6 µM
AGS [14] = assay: Induction of apoptosis in human AGS cells assessed as early apoptotic cells at 6 uM measured after 24 hrs by AnnexinV-FITC/PI staining based flowcytometry method (reference value: 1.2%); assay type: functional

## CC(C)=CCC12Oc3cc(O)ccc3C1(O)Oc1cc(O)c([C@H]3C=C(C)C[C@H](c4ccc(O)cc4O)[C@H]3C(=O)c3ccc(O)cc3O)c(O)c1C2=O (stereo not given in full)
AGS [1]
  Activity: Active
AGS [2]
  Activity: 7.6%
HGC-27 [3]
  Activity: 95.4%
AGS [4]
  Activity: Active
HGC-27 [5]
  Activity: 1.8%
Mus musculus
  inhibition: Active
HGC-27 [6]
  Activity: 62.4%
AGS [7]
  viability at 10 µM: 81.2%
AGS [8]
  inhibition: Active
HGC-27 [9]
  Activity: 10.3%
[10]
  Activity: Non-Toxic
HGC-27 [11]
  Activity: 4.3%
AGS [12]
  viability at 6 µM: 90.1%
AGS [13]
  inhibition: Active
AGS [14]
  Activity: 1.7%

— ChEMBL document CHEMBL5126640, “Sanggenon C Suppresses Tumorigenesis of Gastric Cancer by Blocking ERK-Drp1-Mediated Mitochondrial Fission” (J Nat Prod, 2022)
